# Source: patent US8663928B2, “Method for the detection of post-translational modifications” (CIS BIO International, priority 2006, dated 2014)
# Columns and labels:
# Cam kinase II = biological target: T1, Cam kinase II (Homo sapiens, UniProt Q13557); assay: TR-FRET measurement of the phosphorylation of a generic protein substrate by Cam kinase II in co-transfected HEK293 cells; assay type: cell-based; conditions: FIG. 2; ionomycin 1 μM, 5 min; HEK293 co-transfected with substrate plasmid and CamKII delta
# T1 construct: expressed in transfected cells; host or cells: HEK293
# T1 sequence (Q13557 whole entry): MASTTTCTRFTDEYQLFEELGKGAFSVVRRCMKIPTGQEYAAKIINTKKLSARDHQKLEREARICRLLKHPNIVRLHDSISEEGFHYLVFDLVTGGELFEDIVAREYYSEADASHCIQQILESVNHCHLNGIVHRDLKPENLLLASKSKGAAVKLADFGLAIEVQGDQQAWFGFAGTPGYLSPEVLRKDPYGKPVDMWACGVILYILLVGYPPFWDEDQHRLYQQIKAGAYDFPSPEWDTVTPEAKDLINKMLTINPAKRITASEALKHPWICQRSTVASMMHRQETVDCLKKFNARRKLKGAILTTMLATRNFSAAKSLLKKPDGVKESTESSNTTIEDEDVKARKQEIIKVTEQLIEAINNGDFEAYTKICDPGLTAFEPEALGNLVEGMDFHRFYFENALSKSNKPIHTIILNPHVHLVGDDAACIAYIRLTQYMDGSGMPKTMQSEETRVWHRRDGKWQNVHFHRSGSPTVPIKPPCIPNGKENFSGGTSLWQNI
# Procedure: 8000 cells HEK293 are either transfected with increasing quantities of plasmid coding for the substrate alone (Identical to Example 1), or co-transfected with the same quantities of plasmid coding for the substrate and 25 ng of CamKII 6-pcDNA 3.1 (plasmid coding for Cam kinase II). The transfection is carried out as described in Example 1.
# The cells are then cultured for 48 hours at 37° C. in DMEM medium, comprising 10% fcetal calf serum and 1% antibiotic and antifungal, then for 16 hours in the same medium without serum.
# The cells are stimulated for 5 min in the presence of ionomycin 1 μM (Sigma), and lysed as described above.
# The phosphorylation of the protein substrate is detected as described in Example 1.
# Akt1 = biological target: T2, Akt1 (Homo sapiens, UniProt P31749); assay: TR-FRET measurement of the phosphorylation of a generic protein substrate by Akt1 in co-transfected HEK293 cells, with total protein substrate; assay type: cell-based
# T2 construct: expressed in transfected cells; host or cells: HEK293
# T2 sequence (P31749 whole entry, species assumed): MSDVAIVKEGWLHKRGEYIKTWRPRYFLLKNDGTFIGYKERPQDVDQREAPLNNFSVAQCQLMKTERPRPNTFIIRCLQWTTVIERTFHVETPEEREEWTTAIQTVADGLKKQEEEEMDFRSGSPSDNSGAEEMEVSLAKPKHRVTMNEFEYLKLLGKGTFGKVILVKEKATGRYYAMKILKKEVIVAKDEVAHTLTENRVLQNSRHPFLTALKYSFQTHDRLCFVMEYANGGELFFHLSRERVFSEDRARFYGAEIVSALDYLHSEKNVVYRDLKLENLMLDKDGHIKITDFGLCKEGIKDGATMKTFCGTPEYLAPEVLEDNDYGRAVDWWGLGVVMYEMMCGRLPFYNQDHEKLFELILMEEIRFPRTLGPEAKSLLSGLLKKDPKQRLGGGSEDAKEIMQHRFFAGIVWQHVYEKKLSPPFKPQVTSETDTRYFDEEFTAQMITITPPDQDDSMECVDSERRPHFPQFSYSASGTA
# Procedure: 8000 HEK293 cells (ATCC) are either transfected with increasing quantities of plasmid coding for the substrate alone, or co-transfected with the same quantities of plasmid coding for the substrate and 25 ng of Akt1-pcDNA 3.1 (Invitrogen Corp. Cat No. V790-20) The co-transfection is carried out in the presence of Lipofectamine 2000 (Invitrogen corp. Cat No. 11668-019) and OPTI-MEM medium (Gibco Cat No. 31985).
# The cells are then cultured for 48 hours at 37° C. in 25 μl of DMEM medium (Gibco Cat No. 11965-092), to which 10% FCS (Hyclone Cat No. SV30014-03) and 1% antibiotic and antifungal (Gibco Cat No. 15240-062) are added in 384-well plates (Proxiplate 384, Perkin-Elmer Cat No. 6006280).
# The cells are lysed in 50 mM Hepes buffer, pH7, containing 0.1% BSA, 20 mM EDTA, 0.8 M potassium fluoride and 2% TRITON X-100® (octylphenol ethyelene oxide condensate)). This same buffer contains 1.8 ng of phosphospecific antibodies (STK antibody, Upstate Cat No. 35-002) conjugated with the donor (europium cryptate) and 40 ng of anti-FLAG conjugated with the acceptor (cross-linked allophycocyanin, XL 665, CIS bio international Cat No. 61 FG2XLA).
# The plate is incubated for 1 hour at ambient temperature before time-resolved reading.
# The FRET signals are measured on an Acquest 384 fluorimeter (Molecular Device) in TR-FRET mode at 620 nm (emission wavelength of rare earth cryptate) and 665 nm (emission wavelength of allophycocyanin) after excitation by a flash lamp with a bandwidth comprised between 330 and 380 nm. The ratio between the fluorescence emitted at 665 nm (fluorescence of the acceptor) and the fluorescence emitted at 620 nm (fluorescence of the donor) (Ratio 665/620) represents the FRET occurring between the donor (europium cryptate) and the acceptor (Allophycocyanin). […]
# The cells are co-transfected and cultured as described in Example 1. […] The cells are then lysed and the phosphorylated protein substrate detected as described in Example 1.
# In parallel, in a second well, cells are treated in identical manner. After lysis, the total quantity of protein substrate is measured using an anti-c-myc antibody coupled with europium cryptate (2.9 ng/well) (CIS bio international Cat No. 61MYCKLA) and an anti-FLAG antibody coupled with allophycocyanin (40 ng/well).
# The cells are co-transfected with a plasmid coding for the protein substrate labelled by the c-myc and flag tags and with a plasmid coding for Akt1, as described in Example 1. […] In this case the lysate is first placed in the presence of a phosphospecific antibody, coupled with tris-bipyridine europium cryptate (CIS bio international, formula below), and an anti-FLAG antibody coupled with allophycocyanin (in the same quantities as those described in Example 1). […]
Structure (SMILES),signal of phosphorylated protein substrate after stimulation (Cam kinase II),"signal corresponding to the phosphorylated protein substrate (Akt1; FIG. 3, HEK293 co-transfected with substrate plasmid and Akt1, 1 hour incubation with increasing concentrations, separate wells)","signal corresponding to the total protein substrate (Akt1; FIG. 3, anti-c-myc cryptate/anti-FLAG allophycocyanin, second well, increasing concentrations)","signal corresponding to the phosphorylated protein substrate (not standardized) (Akt1; FIG. 4, 0.2 nM, 20 nM, 2 μM, separate wells or single well with FRET suppressing agent)","ratio of phosphorylated protein substrate: total protein substrate (Akt1; FIG. 6, signal standardized by total protein substrate signal, 0.2 nM, 20 nM, 2 μM)"
C[C@H](CCC(=O)O)C[C@H](C)C[C@H](C)C(=O)/C=C(\O)[C@H](C)C[C@H](C)C/C=C/[C@@H](C)[C@@H](O)[C@@H](C)[C@@H](O)C[C@@H]1CC[C@@](C)([C@H]2CC[C@@](C)([C@@H](C)O)O2)O1 [ionomycin],much greater than in its absence,,,,
CN[C@@H]1C[C@H]2O[C@@](C)([C@@H]1OC)n1c3ccccc3c3c4c(c5c6ccccc6n2c5c31)C(=O)NC4 [staurosporine],,reduces with increasing concentrations,remains constant whatever the dose of inhibitor,sensitive to staurosporine only in the case where it is added to the measurement medium at high concentrations (2 μM),inhibition of the phosphorylation of the protein substrate
